The results in this text go back to patent US12338220B2, “Antiviral pyrazolopiridinone compounds” (Novartis AG, priority 2019, dated 2025).

One experiment addresses HSV-polymerase (Human herpesvirus 1 (strain 17) (HHV-1) (Human herpes simplex virus 1), UniProt P04293). In words: biochemical.
The target in the next experiment is CMV-polymerase (Human cytomegalovirus (strain AD169) (HHV-5) (Human herpesvirus 5), UniProt P08546). In words: biochemical.
Another experiment deals with CMV. In words: microbe, parasite or virus in culture. Type of experiment: cell-based. The following applies: Human betaherpesvirus 5, 72 h, read-out: CMV-Luc Cellular EC50, NN-NHDF cells, MOI 1, 72 hrs.
Where [1] appears, read: CMV-polymerase Biochemical IC50.
Setting [2] is: read-out: CMV-polymerase Biochemical IC50.

pEC50, pIC50: −log10 of the molar value. Where two headings read alike, the source gives them in different places.

One may read the pIC50 as the negative decadic logarithm of the IC50, by convention in mol/L. Regarding `CC1Cc2c(C(=O)NCc3ccc(C#N)cc3)nn(C)c2C(=O)N1CC1(S(C)(=O)=O)CC1` (single isomer, unassigned) [Example 42, (R)- or (S)-N-(4-cyanobenzyl)-1,5-dimethyl-6-((1-(methylsulfonyl)cyclopropyl)methyl)-7-oxo-4,5,6,7-tetrahydro-1H-pyrazolo[3,4-c]pyridine-3-carboxamide], the pIC50 at HSV-polymerase is 5.70; at CMV-polymerase (setting [1]), 6.83.
The like results for `Cn1nc(C(=O)NCc2ccc(C#N)cc2)c2c1C(=O)N(CC1(S(=O)(=O)C(C)(C)COC(F)CO)CC1)CC2` (single isomer, unassigned) [Example 81, (R)- or (S)-N-(4-cyanobenzyl)-6-((1-((1-(1-fluoro-2-hydroxyethoxy)-2-methylpropan-2-yl)sulfonyl)cyclopropyl)methyl)-1-methyl-7-oxo-4,5,6,7-tetrahydro-1H-pyrazolo[3,4-c]pyridine-3-carboxamide] were, in that order, 7.34 and 8.52.
With `Cn1nc(C(=O)NCc2ccc(C#N)cc2)c2c1C(=O)N(CC1(S(=O)(=O)C(C)(C)COC(F)CN)CC1)CC2` (single isomer, unassigned) [Example 82, (R)- or (S)-6-((1-((1-(2-amino-1-fluoroethoxy)-2-methylpropan-2-yl)sulfonyl)cyclopropyl)methyl)-N-(4-cyanobenzyl)-1-methyl-7-oxo-4,5,6,7-tetrahydro-1H-pyrazolo[3,4-c]pyridine-3-carboxamide], the pIC50 at HSV-polymerase is 7.09; at CMV-polymerase (setting [2]), 8.70.
For `Cn1nc(C(=O)NCc2ccc(C#N)cc2)c2c1C(=O)N(CC1(S(=O)(=O)C(C)(C)COC(F)CN)CC1)CC2` (single isomer, unassigned) [Example 83, (R)- or (S)-6-((1-((1-(2-Amino-1-fluoroethoxy)-2-methylpropan-2-yl)sulfonyl)cyclopropyl)methyl)-N-(4-cyanobenzyl)-1-methyl-7-oxo-4,5,6,7-tetrahydro-1H-pyrazolo[3,4-c]pyridine-3-carboxamide] the same measures were 7.15 and 9.00.
Consider `CC(O)COCC(C)(C)S(=O)(=O)C1(CN2CCc3c(C(=O)NCc4ccc(C#N)cc4)nn(C)c3C2=O)CC1` (single isomer, unassigned) [Example 91, (R)- or (S)-N-(4-Cyanobenzyl)-6-((1-((1-(2-hydroxypropoxy)-2-methylpropan-2-yl)sulfonyl)cyclopropyl)methyl)-1-methyl-7-oxo-4,5,6,7-tetrahydro-1H-pyrazolo[3,4-c]pyridine-3-carboxamide], for which the pIC50 at HSV-polymerase is 7.16; against CMV-polymerase (setting [1]), 8.30.
In the case of `CC1=NOC(C(C)(C)S(=O)(=O)C2(CN3CCc4c(C(=O)NCc5ccc(C#N)cc5)nn(C)c4C3=O)CC2)C1` (single isomer, unassigned) [Example 111, (R)- or (S)-N-(4-Cyanobenzyl)-1-methyl-6-((1-((2-(3-methyl-4,5-dihydroisoxazol-5-yl)propan-2-yl)sulfonyl)cyclopropyl)methyl)-7-oxo-4,5,6,7-tetrahydro-1H-pyrazolo[3,4-c]pyridine-3-carboxamide], the figures for the pIC50 against HSV-polymerase and at CMV-polymerase (setting [2]) were 6.83 and 8.30, respectively.
On HSV-polymerase, `Cn1nc(C(=O)NCc2ccc(C#N)cc2)c2c1C(=O)N(CC1(S(=O)(=O)C3(C(O)CO)CC3)CC1)CC2` (single isomer, unassigned) [Example 195, (R)- or (S)-N-(4-Cyanobenzyl)-6-((1-((1-(1,2-dihydroxyethyl)cyclopropyl)sulfonyl)cyclopropyl)methyl)-1-methyl-7-oxo-4,5,6,7-tetrahydro-1H-pyrazolo[3,4-c]pyridine-3-carboxamide] showed a pIC50 of 7.64.
For orientation: pEC50 means the EC50 on a negative log10 scale, so that one unit is a factor of ten. As for `CC(C)(O)Cn1nc(C(=O)NCc2ccc(C#N)cc2)c2c1C(=O)N(CC1(S(C)(=O)=O)CC1)CC2` [Example 232, N-(4-Cyanobenzyl)-1-(2-hydroxy-2-methylpropyl)-6-((1-(methylsulfonyl)cyclopropyl)methyl)-7-oxo-4,5,6,7-tetrahydro-1H-pyrazolo[3,4-c]pyridine-3-carboxamide], the pEC50 in the experiment with CMV was 6.80. Further, on CMV-polymerase (setting [2]), the pIC50 is 8.22.
For `CCS(=O)(=O)C1(CN2CCc3c(C(=O)NCc4ccc(C#N)cc4)nn(CC(C)(C)O)c3C2=O)CC1` [Example 233, N-(4-Cyanobenzyl)-6-((1-(ethylsulfonyl)cyclopropyl)methyl)-1-(2-hydroxy-2-methylpropyl)-7-oxo-4,5,6,7-tetrahydro-1H-pyrazolo[3,4-c]pyridine-3-carboxamide] the same measures were 7.02 and 8.70.
With `CC(C)(O)Cn1nc(C(=O)NCc2ccc(C#N)cc2)c2c1C(=O)N(CC1(S(=O)(=O)C(C)(C)CO)CC1)CC2` [Example 235, N-(4-Cyanobenzyl)-6-((1-((1-hydroxy-2-methylpropan-2-yl)sulfonyl)cyclopropyl)methyl)-1-(2-hydroxy-2-methylpropyl)-7-oxo-4,5,6,7-tetrahydro-1H-pyrazolo[3,4-c]pyridine-3-carboxamide], the pEC50 in the experiment on CMV is 7.51. Moreover, the pIC50 on CMV-polymerase (setting [2]) is 9.00.
The like results for `N#Cc1ccc(CNC(=O)c2nn(CCCO)c3c2CCN(CC2(S(=O)(=O)C4CC4)CC2)C3=O)cc1` [Example 236, N-(4-Cyanobenzyl)-6-((1-(cyclopropylsulfonyl)cyclopropyl)methyl)-1-(3-hydroxypropyl)-7-oxo-4,5,6,7-tetrahydro-1H-pyrazolo[3,4-c]pyridine-3-carboxamide] were, in that order, 7.11 and 8.40.
On to `CC1(S(=O)(=O)C2(CN3CCc4c(C(=O)NCc5ccc(C#N)cc5)nn(CCCO)c4C3=O)CC2)CC1` [Example 237, N-(4-Cyanobenzyl)-1-(3-hydroxypropyl)-6-((1-((1-methylcyclopropyl)sulfonyl)cyclopropyl)methyl)-7-oxo-4,5,6,7-tetrahydro-1H-pyrazolo[3,4-c]pyridine-3-carboxamide], for which the pEC50 in the experiment with CMV is 7.42. Besides, the negative logarithm of the IC50 (pIC50) at CMV-polymerase (setting [2]) was 8.70.
The like results for `CC(C)(CO)S(=O)(=O)C1(CN2CCc3c(C(=O)NCc4ccc(C#N)cc4)nn(CCOCCBr)c3C2=O)CC1` [Example 238, 1-(2-(2-bromoethoxy)ethyl)-N-(4-cyanobenzyl)-6-((1-((1-hydroxy-2-methylpropan-2-yl)sulfonyl)cyclopropyl)methyl)-7-oxo-4,5,6,7-tetrahydro-1H-pyrazolo[3,4-c]pyridine-3-carboxamide] were, in that order, 7.80 and 9.00.
For the compound `CC1(C)COCCOCCn2nc(C(=O)NCc3ccc(C#N)cc3)c3c2C(=O)N(CC3)CC2(CC2)S1(=O)=O` [Example 239, Ethylene glycol macrocycle N-(4-cyanobenzyl)carboxamide], the pEC50 in the experiment on CMV was 7.64. The compound further gave a pIC50 at CMV-polymerase (setting [1]) of 9.00.
The like results for `CC1(C)COCCOCCn2nc(C(=O)NCc3ccc(Cl)cc3)c3c2C(=O)N(CC3)CC2(CC2)S1(=O)=O` [Example 240, Ethylene glycol macrocycle N-(4-chlorobenzyl)carboxamide] were, in that order, 7.37 and 9.00.
On to `CC1(C)C(=O)NCCOCCn2nc(C(=O)NCc3ccc(C#N)cc3)c3c2C(=O)N(CC3)CC2(CC2)S1(=O)=O` [Example 241, Lactam macrocycle N-(4-cyanobenzyl)carboxamide], for which, in the experiment on CMV, the pEC50 is 6.33. The same compound gave a negative-log IC50 (pIC50) at CMV-polymerase (setting [1]) of 7.89.
On to `CC1(C)CNCCOCCn2nc(C(=O)NCc3ccc(C#N)cc3)c3c2C(=O)N(CC3)CC2(CC2)S1(=O)=O` [Example 242, amine macrocycle N-(4-cyanobenzyl)carboxamide], for which the pEC50 with CMV was 7.00. The compound further showed a pIC50 against CMV-polymerase (setting [1]) of 8.22.
